Measurements: patent US7125964B2, “Purification of antigen-specific T cells” (Ortho-McNeil Pharmaceutical, Inc., priority 1996, dated 2006)
Where two headings read alike, the source gives them in different places.

Experiments:
2C TCR = settings: association constant, cited from earlier work; for 2C TCR affinity for L^d-peptide: Sykulev et al, 1994 a, b; for affinity of peptide-MHC complex for the 2C TCR: recently determined
L^d = biological target: T1, L^d (Mus musculus, UniProt P01897); settings: association constant; cited from earlier work
T1 sequence (P01897 25-298 limits assumed): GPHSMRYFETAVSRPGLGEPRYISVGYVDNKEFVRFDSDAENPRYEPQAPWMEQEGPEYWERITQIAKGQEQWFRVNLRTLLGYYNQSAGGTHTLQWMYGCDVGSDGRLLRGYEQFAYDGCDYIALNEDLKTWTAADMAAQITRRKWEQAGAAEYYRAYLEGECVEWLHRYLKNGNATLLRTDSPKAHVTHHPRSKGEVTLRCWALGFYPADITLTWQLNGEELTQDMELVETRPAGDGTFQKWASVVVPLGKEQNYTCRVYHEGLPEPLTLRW
T1 sequence (P01887 21-119 partner): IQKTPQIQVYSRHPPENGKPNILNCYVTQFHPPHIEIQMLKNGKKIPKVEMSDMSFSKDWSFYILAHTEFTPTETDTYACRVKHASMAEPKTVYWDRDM

2C T cells [1] = experiment: Cell-bead complex formation, flow cytofluorometry, side scatter versus forward scatter dot plots; assay type: cell-based, mouse; settings: 4 hours of incubation
2C T cells [2] = experiment: Influence of temperature and CD8 on cell-bead complex formation, flow cytofluorometry; assay type: cell-based, mouse; settings: for CD8 dependence of cell capture: purified 2C T cells versus CD8^− 2C T cells, room temperature, 3 hours
Procedure: We used flow cytofluorometry analysis to quantitate the influence of various parameters on cell-bead complex formation. Attachment of cells to beads was time dependent. […] Kinetics of adsorption were remarkably parallel for various peptide-MHC complexes. At 4° C., only a small percentage of cells was captured on beads, even after prolonged incubation. […] ([…], 1996).

2C T cells [3] = experiment: Cell-bead complex formation, flow cytofluorometry, green versus red fluorescence dot plots; assay type: cell-based, mouse; settings: L^d-coated beads, 20 μM peptide
2C T cells [4] = experiment: Recovery of 2C T cells mixed with CD8^+ T cells from naive C57BL/6 mouse by adsorption on MHC class I-coated magnetic beads; assay type: cell-based; settings: for % 2C T cell after enrichment: 0.03% 2C T cells before enrichment
Procedure: T cell precursor frequencies in a naive animal are typically low. Magnetic beads have been found suitable in other systems to enrich low frequency cell populations (Sawada et al., 1990; Kato and Radbruch, 1993). To assess whether MHC class I-coated magnetic beads could be used for T cell precursor enrichment, we mixed fluorescein-labeled 2C T cells with CD8^+ T cells purified from naive C57BL/6 mice. After incubation with MHC-coated magnetic beads in the presence of peptide, adsorbed cells were eluted and counted, and the percentage of 2C T cells was determined by flow cytofluorometry. In the experiment shown in FIG. 5, 2C T cells were undetectable at the initial frequency of 0.03%. Following adsorption using K^bm3-coated beads and dEV-8 peptide, a definite peak of green fluorescence was observed, displaying the same intensity as the original fluorescein-stained 2C T cell population. This peak represented 65.1% of the eluted cells. No peak was observed when a control peptide was used instead of dEV-8. […] In all cases, the non-fluorescent cells in the eluted population represented only a minor fraction of the initial cell population (˜0.2%).

[5] = biological target: 2C T cell receptor (2C TCR) on naive T cells purified from 2C TCR transgenic mice (mouse); experiment: 2C T cells mixed with CD8+ T cells of naive B6 mouse (0.03%), adsorption on MHC class I-coated magnetic beads, 2 experiments
[6] = biological target: 2C T cell receptor (2C TCR) on naive T cells purified from 2C TCR transgenic mice (mouse); experiment: 2C T cells with MHC-coated magnetic beads, 4 h, flow cytofluorometry, forward versus side scatter
[7] = biological target: 2C T cell receptor (2C TCR) on naive T cells purified from 2C TCR transgenic mice (mouse); experiment: 2C T cells with MHC-coated magnetic beads, flow cytofluorometry, temperature dependence
[8] = biological target: 2C T cell receptor (2C TCR) on naive T cells purified from 2C TCR transgenic mice (mouse); experiment: fluorescein-labeled 2C T cells with phycoerythrin-labeled L^d-coated beads, flow cytofluorometry, green versus red dot plots
[9] = biological target: 2C T cell receptor (2C TCR) on naive T cells purified from 2C TCR transgenic mice (mouse); experiment: 2C T cells mixed with CD8+ T cells of naive B6 mouse (0.03%), adsorption on MHC class I-coated magnetic beads, 3 experiments
2C T cells [10] = experiment: Capture of 2C T cells on MHC-coated magnetic beads, microscopic examination; assay type: cell-based, mouse; settings: readout not stated
[11] = biological target: 2C T cell receptor (2C TCR) on naive T cells purified from 2C TCR transgenic mice (mouse); experiment: 2C T cells with MHC-coated magnetic beads, flow cytofluorometry, forward versus side scatter
[12] = biological target: 2C T cell receptor (2C TCR) on naive T cells purified from 2C TCR transgenic mice (mouse); experiment: fluorescein-labeled 2C T cells with phycoerythrin-labeled L^d-coated beads, flow cytofluorometry, green versus red dot plots; laid by the filing to non-specific adsorption of cell debris
EL4 cells = assay type: cell-based, mouse

YPHFMPTNL [MCMV, ID; NO.: 8]
2C TCR affinity for L^d-peptide (2C TCR): <10^3 M^−1 | Peptide affinity for L^d (L^d): 2e+09 M⁻¹

LSPFPFDL [p2Ca]
2C TCR affinity for L^d-peptide (2C TCR): 2e+06 M⁻¹ | percentage of cells adsorbed to beads (CO/CO+CE) (2C T cells [1]; L^d-coated beads): 78.9% | CD8 dependence of cell capture (2C T cells [2]): most CD8-dependent | Peptide affinity for L^d (L^d): 4e+06 M⁻¹

RPQASGVYM [LCMV]
percentage of cells complexed to beads (RG/G+RG) (2C T cells [3]): 2.2%

QLSPFPFDL [QL9]
2C TCR affinity for L^d-peptide (2C TCR): 10^7 M^−1 | percentage of cells adsorbed to beads (CO/CO+CE) (2C T cells [1]; L^d-coated beads): 91.0% | CD8 dependence of cell capture (2C T cells [2]): CD8 independent | 2C T cell enrichment (2C T cells [4]; L^d-coated beads): 828 ± 230 fold | % 2C T cell after enrichment (2C T cells [4]; L^d-coated beads): 24.8 ± 6.9% | Peptide affinity for L^d (L^d): 2e+08 M⁻¹

K^b-SIYR complex on avidin-coated magnetic beads (from UniProt P01887 21-119; P01901 22-369) (peptide-MHC)
2C T cell recovery [5]: 56.8% | % of cells adsorbed to beads [6]: 75.7%

L^d-p2Ca complex on avidin-coated magnetic beads (from UniProt P01887 21-119; P01897 25-362) (peptide-MHC)
% of cells adsorbed to beads [6]: 78.9% | attachment level at 37° C. against the value at room temperature [7]: 25% | % of cells complexed to beads [8]: > 85%

L^d-QL9 complex on avidin-coated magnetic beads (from UniProt P01887 21-119; P01897 25-362) (peptide-MHC)
2C T cell recovery [9]: 90% | % of cells adsorbed to beads [6]: 91% | % of cells complexed to beads [8]: > 85%

K^bm3-dEV-8 complex on avidin-coated magnetic beads (from UniProt P01887 21-119) (peptide-MHC)
2C T cell recovery [5]: 47.7% | % of cells adsorbed to beads [6]: 63.8%

SPFPFDLLL [SL9, ID; NO.: 3]
2C TCR affinity for L^d-peptide (2C TCR): 14000 M⁻¹ | Peptide affinity for L^d (L^d): 4e+07 M⁻¹

K^b-dEV-8: complex of K^b with peptide dEV-8
affinity of peptide-MHC complex for the 2C TCR (2C TCR): 12000 M⁻¹ | capture of 2C T cells observed or not (2C T cells [10]): not

L^d-p2Ca-A3: complex of L^d with peptide p2Ca-A3
affinity of peptide-MHC complex for the 2C TCR (2C TCR): 20000 M⁻¹ | capture of 2C T cells observed or not (2C T cells [10]): not

L^d-SL9: complex of L^d with peptide SL9
affinity of peptide-MHC complex for the 2C TCR (2C TCR): 14000 M⁻¹

SIYRYYGL
percentage of cells adsorbed to beads (CO/CO+CE) (2C T cells [1]; K^b-coated beads): 75.7% | CD8 dependence of cell capture (2C T cells [2]): CD8 independent | 2C T cell enrichment (2C T cells [4]; K^b-coated beads): 1588 ± 71 fold | % 2C T cell after enrichment (2C T cells [4]; K^b-coated beads): 47.6 ± 2.1%

L^d-p2Ca: complex of L^d with peptide p2Ca
attachment levels at 37° C. relative to values measured at room temperature (2C T cells [2]; 37° C. versus room temperature): about 25% | CD8 dependence of cell capture (2C T cells [2]): exhibited CD8 dependence

L^d-LCMV complex on avidin-coated magnetic beads (from UniProt P01887 21-119; P01897 25-362) (peptide-MHC)
% of events in the complex region [11]: 2.6% | % red and green colored events [12]: 2.2%

EQYKFYSV [dEV-8, ID; NO.: 5]
percentage of cells adsorbed to beads (CO/CO+CE) (2C T cells [1]; K^bm3-coated beads): 63.8% | CD8 dependence of cell capture (2C T cells [2]): most CD8-dependent | 2C T cell enrichment (2C T cells [4]; K^bm3-coated beads): 1697 ± 473 fold | % 2C T cell after enrichment (2C T cells [4]; K^bm3-coated beads): 50.9 ± 14.2%

SIINFEKL [OVA-8, ID; NO.: 9]
CTL activity of cells captured and cultured with the same peptide (EL4 cells; K^b-coated beads, naive C57BL/6 CD8^+ T cells, tested at day 18, peptides 1 μM): displayed a CTL activity specific for OVA-8 peptide | CTL precursors for the other peptide in captured cells (EL4 cells; reverse combination: captured with one peptide, activated in culture with the other): no detectable anti-VSV-8 CTL precursors

K^b-SIYR: complex of K^b with peptide SIYR
affinity of peptide-MHC complex for the 2C TCR (2C TCR): 31000 M⁻¹ | capture of 2C T cells observed or not (2C T cells [10]): consistently observed capture

L^d-SL9 complex on avidin-coated magnetic beads (from UniProt P01887 21-119; P01897 25-362) (peptide-MHC)
% of cells complexed to beads [8]: > 85%

L^d-QL9: complex of MHC class I molecule L^d with peptide QL9
CD8 dependence of cell capture (2C T cells [2]): largely CD8 independent

RGYVYQGL [VSV-8]
CTL activity of cells captured and cultured with the same peptide (EL4 cells): displayed a CTL activity specific for VSV-8 | CTL precursors for the other peptide in captured cells (EL4 cells): no detectable anti-OVA-8 CTL precursors

B1: K^b-E1: non-2C reactive complex of K^b with peptide E1 (protein)
MHC heavy: GPHSLRYFVTAVSRPGLGEPRYMEVGYVDDTEFVRFDSDAENPRYEPRARWMEQEGPEYWERETQKAKGNEQSFRVDLRTLLGYYNQSKGGSHTIQVISGCEVGSDGRLLRGYQQYAYDGCDYIALNEDLKTWTAADMAALITKHKWEQAGEAERLRAYLEGTCVEWLRRYLKNGNATLLRTDSPKAHVTHHSRPEDKVTLRCWALGFYPADITLTWQLNGEELIQDMELVETRPAGDGTFQKWASVVVPLGKEQYYTCHVYHQGLPEPLTLRWEPPPSTVSNMATVAVLVVLGAAIVTGAVVAFVMKMRRRNTGGKGGDYALAPGSQTSDLSLPDCKVMVHDPHSLA
b2m: IQKTPQIQVYSRHPPENGKPNILNCYVTQFHPPHIEIQMLKNGKKIPKVEMSDMSFSKDWSFYILAHTEFTPTETDTYACRVKHASMAEPKTVYWDRDM
peptide: EIINFEKL
percentage of cells adsorbed to beads (CO/CO+CE) (2C T cells [1]; K^b-coated beads): 0.2%
